What was measured:
[1] = molecular target: T1, full-length human PDE4D5 (long isoform) (Homo sapiens, UniProt Q08499); assay: PDE assay ([3H]cAMP hydrolysis) with PDE4D5 cell lysate cytosol fraction; format: biochemical; settings: 100 μM test compound; mean % increase in counts over basal activity
T1 construct: cell lines that stably expressed the full-length human PDE4 long isoforms and the full length human PDE4B2 short isoform; made in house; cytosol fraction of the cell lysate, not purified
Method: (§1) HEK 293 and MDCK cells (Public Health England, Cell Culture Collections) were maintained in Dulbecco's Modified Eagle's Medium (DMEM) supplemented with 10% (v/v) fetal bovine serum (FBS) (Seralab), 2 mM L-glutamine and 100 U/mL penicillin streptomycin cocktail (ThermoFisher); termed complete media. Clonal HEK 293 cell lines were maintained in complete media supplemented with 0.6 mg/ml G418 (Enzo Life Sciences). Mouse inner medullary collecting duct (m-IMCD3) cells [American Type Culture Collection (ATCC)] were maintained in media consisting of DMEM/Hams F-12 50/50 Mix (DMEM F12; Corning) supplemented with penicillin streptomycin cocktail (100 U/mL) and FBS (10% v/v) (DMEM F12-10% FBS).
(§2) Experiment 1: Measurement of Modulation of Enzyme Activity by PDE4 Long Form Activators of the Present Invention Using Full-Length Human PDE4 Isoforms; Long Forms PDE4D5, PDE4C3, PDE4B1 and Short Form PDE4B2
(§3) (Marchmont, R. J. and Houslay, M. D. Biochem. J. 187:381-92, 1980)
(§4) Exogenous expression of long form PDE4 enzymes and stable cell line generation For transient transfection of exogenous PDE4 long isoforms, HEK 293 cells were transfected with pcDNA3.1 or pDEST™ PDE4 expression vectors using Lipofectamine LTX/Plus reagent (Invitrogen) as outlined by the manufacturer.
(§5) Where stable cell lines were generated the clonal isolates were expanded to obtain cell lines that stably expressed the full-length human PDE4 long isoforms and the full length human PDE4B2 short isoform. These were called the HEK-PDE4D5, HEK-PDE4B1 and HEK-PDE4B2 cell lines, respectively.
(§6) Lysate Preparation (Using PDE4D5 as a Typical Example)
(§7) HEK-PDE4D5 cells were seeded out in 100 mm plates and incubated at 37° C. in an atmosphere of 5% CO2, 95% air. Cell lysates were prepared using KHEM buffer [50 mM KCl, 10 mM EGTA, 50 mM HEPES (pH 7.2), 1.92 mM MgCl2].
(§8) To prepare the cell lysates, the 100 mm plates containing the cells were placed on ice and washed with ice-cold PBS (phosphate buffered saline, pH 7.4). KHEM buffer (500 μL) was added to the cells. Cells were then scraped off the plate and triturated using a needle (BD Microlance™ 0.8, 40 mm). The lysed cells were then centrifuged at 2000 rpm for 10 minutes to remove cell debris and the supernatant (cell lysate containing recombinant PDE4D5) was transferred to a fresh tube and kept on ice.
(§9) Cytosol Fraction Preparation (Using PDE4D5 as a Typical Example)
(§10) The cell lysate containing recombinant PDE4D5 was transferred into a centrifuge tube and placed into an ultracentrifuge (BECKMAN COULTER) and spun at high speed (100,000g) for 30 minutes at 4° C. The cytosol fraction was then collected and its protein amount determined using a BCA protein assay.
(§11) PDE Assay—(Using PDE4D5 as a Typical Example)
(§12) PDE assays were performed in thin-walled V-bottomed 96-well plates. […]

[2] = molecular target: T2, full-length human PDE4B2 (short isoform) (Homo sapiens, UniProt Q07343); assay: PDE assay ([3H]cAMP hydrolysis) with PDE4B2 cell lysate cytosol fraction; format: biochemical; settings: 100 μM test compound; mean % increase in counts over basal activity
T2 construct: the full length human PDE4B2 short isoform; made in house; cytosol fraction of the cell lysate, not purified
T2 sequence (Q07343 1-564 isoform Q07343-2): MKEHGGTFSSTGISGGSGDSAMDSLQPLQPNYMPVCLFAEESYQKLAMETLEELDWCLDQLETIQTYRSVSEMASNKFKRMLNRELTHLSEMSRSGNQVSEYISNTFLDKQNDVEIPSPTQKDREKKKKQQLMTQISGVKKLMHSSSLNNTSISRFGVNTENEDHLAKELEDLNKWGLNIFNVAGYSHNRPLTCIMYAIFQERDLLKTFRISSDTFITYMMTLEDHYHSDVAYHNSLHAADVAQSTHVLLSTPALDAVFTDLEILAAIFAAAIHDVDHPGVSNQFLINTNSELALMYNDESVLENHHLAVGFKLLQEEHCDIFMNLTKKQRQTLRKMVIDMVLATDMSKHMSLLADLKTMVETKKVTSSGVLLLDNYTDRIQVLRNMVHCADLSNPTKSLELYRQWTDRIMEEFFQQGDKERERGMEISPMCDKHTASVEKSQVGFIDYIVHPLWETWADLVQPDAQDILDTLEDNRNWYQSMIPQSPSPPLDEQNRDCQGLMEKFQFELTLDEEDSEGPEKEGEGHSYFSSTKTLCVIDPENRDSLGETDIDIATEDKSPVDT
Method: as §1, §2, §3, §4, §5, §6, §7, §8, §9, §10, §11, §12

[3] = tested on: m-IMCD3 cells expressing PDE4 long forms; assay: cAMP levels in assay media of PGE2-stimulated m-IMCD3 3D cell culture; format: cell-based; settings: Mus musculus, mIMCD3; 3 μM test compound; compared to 100% for (DMSO + PGE2); read-out: cAMP level (% of PGE2-stimulated)
Method: as §1
Experiment 2: Reduction of CAMP Levels in m-IMCD3 Cell Culture Treated with PDE4 Long Form Activators
Activation of intracellular PDE4 long forms leads to a reduction of both intracellular CAMP and externalised cAMP (Omar et al., PNAS 116:13320-13329, 2019). This reduction may be measured in the cell culture media supernatant of 3D cystic cell cultures, such as in the m-IMCD3 cell cyst suppression assay described in Experiment 3.
Following the completion of the m-IMCD3 cell cyst suppression assay (Experiment 3), the CAMP levels in the assay media from individual or pooled assay wells was measured using a CAMP ELISA kit (Enzo Life Sciences) or a LANCE Ultra CAMP kit (PerkinElmer) according to the manufacturer's instructions.
Treatment with PDE4 long form activators reduced CAMP levels in PGE2-stimulated m-IMCD3 cell culture.

m-IMCD3 cells = assay: Inhibition of PGE2-stimulated in vitro cyst formation in m-IMCD3 cells (3D culture); format: cell-based; settings: Mus musculus, mIMCD3, 144 h, mean cyst area, 100% for (DMSO + PGE2) and 0% for DMSO control, 6 days of culture
How it was run: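 m-IMCD3 cells in a 3D collagen I/Matrigel matrix at 37 °C, 5% CO2 were dosed 18–24 h after plating with compound (0.1% DMSO) plus 100 nM PGE2, in quadruplicate, replenished after 2–3 days. On day 6, z-stack imaging measured mean cyst area, normalised to DMSO+PGE2 (100%) and DMSO alone (0%).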

T1 sequence (Q08499 1-745 isoform Q08499-6): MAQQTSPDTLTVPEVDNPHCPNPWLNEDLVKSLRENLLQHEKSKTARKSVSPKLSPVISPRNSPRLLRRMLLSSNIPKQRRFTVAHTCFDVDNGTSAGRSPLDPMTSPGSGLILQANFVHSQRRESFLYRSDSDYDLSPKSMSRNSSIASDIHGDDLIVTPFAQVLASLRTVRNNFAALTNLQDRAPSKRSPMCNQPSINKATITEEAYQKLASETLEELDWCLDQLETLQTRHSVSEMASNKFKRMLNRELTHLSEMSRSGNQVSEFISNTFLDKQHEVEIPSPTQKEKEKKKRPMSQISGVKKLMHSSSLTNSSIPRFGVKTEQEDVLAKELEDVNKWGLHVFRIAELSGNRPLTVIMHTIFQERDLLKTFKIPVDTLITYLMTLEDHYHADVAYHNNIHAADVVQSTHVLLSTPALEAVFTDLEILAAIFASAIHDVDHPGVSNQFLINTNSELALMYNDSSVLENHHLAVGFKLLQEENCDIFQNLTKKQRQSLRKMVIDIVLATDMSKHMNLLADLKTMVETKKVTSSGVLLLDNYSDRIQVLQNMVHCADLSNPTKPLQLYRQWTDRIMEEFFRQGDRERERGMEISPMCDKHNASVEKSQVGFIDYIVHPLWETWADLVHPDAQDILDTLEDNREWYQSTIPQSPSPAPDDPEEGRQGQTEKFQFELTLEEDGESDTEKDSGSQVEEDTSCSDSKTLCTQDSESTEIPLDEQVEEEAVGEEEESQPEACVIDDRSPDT

Compound | % increase in PDE4D5 (long isoform) activity at 100 μM* (%) [1] [%] | % increase in PDE4B2 (short isoform) activity at 100 μM* [2] [%] | activity at 3 µM [3] [%] | activity at 10 µM (m-IMCD3 cells; 10 μM, read-out: % Cyst area* after incubation with 10 μM test compound) [%] | activity at 3 µM (m-IMCD3 cells; 3 μM, read-out: % Cyst area* after incubation with 3 μM test compound) [%]
O=C(Cc1ccc(F)cc1)N1CCc2nc(N3C4CCC3CNC4)ccc2C1 [Example 48, 1-(2-(3,8-diazabicyclo[3.2.1]octan-8-yl)-7,8-dihydro-1,6-naphthyridin-6(5H)-yl)-2-(4-fluorophenyl)ethan-1-one] | 31 | −9 | 57 | -5 | –
O=C(COc1ccc(F)cc1)N1CCc2nc(N3C4CCC3CNC4)ccc2C1 [Example 46, 1-(2-(3,8-diazabicyclo[3.2.1]octan-8-yl)-7,8-dihydro-1,6-naphthyridin-6(5H)-yl)-2-(4-fluorophenoxy)ethan-1-one] | 94 | 6 | 42 | – | –
CCN1CC2CCC(C1)N2c1ccc2c(n1)CCN(S(=O)(=O)Cc1ccc(F)cc1)C2 [Example 159, 2-(3-ethyl-3,8-diazabicyclo[3.2.1]octan-8-yl)-6-((4-fluorobenzyl)sulfonyl)-5,6,7,8-tetrahydro-1,6-naphthyridine] | 35 | 2 | – | – | 1
